Reference: patent US10562869B2, “Oxadiazole compounds” (REMYND NV, priority 2014, dated 2020)

Test system: M17_3SYN cells
Test: Paraquat-induced cytotoxicity (LDH) in α-synuclein over-expressing M17_3SYN neuroblastoma cells
Format: cell-based, human
Conditions: Homo sapiens, Neuroblastoma cell, 48 h, toxicity inhibition (LDH) in M17_3SYN cells challenged with 6 mM paraquat, 2 days; read-out: SYN EC50
Description: A α-synuclein expression plasmid was constructed by subcloning the NcoI/XhoI fragment from 212T-SYN(WT) (Griffioen et al., Biochem Biophys Acta (2006) 1762(3):312-318) containing the cDNA of human wild type α-synuclein correspondingly into a standard mammalian expression vector pcDNA3.1 resulting in plasmid pcDNA3.1-SYNwt. Plasmids pcDNA3.1 and pcDNA3.1-SYNwt were transfected into human neuroblastoma cells (BE-M17; ATCC No. CRL-2267™) using lipofectamine reagent and subsequently, independent clonal cell lines with the plasmids stably integrated into the genome were selected by antibiotic resistance selection (Geneticin (G418)), resulting in cell lines M17.pcDNA3 and M17_3SYN. Overexpression of α-synuclein in the M17_3SYN cell line was confirmed by Western blot analysis.
Due to the high levels of α-synuclein, M17_3SYN cells were sensitive to paraquat, a well-known risk factor Parkinson's disease and of synuclein-dependent neuronal degeneration. Cytotoxicity of cells was measured by quantification of lactate dehydrogenase (LDH) levels. In dead cells, LDH leaked out of the cells into the medium due to a loss of plasma-membrane integrity.
[…], primary pre-cultures of M17.pcDNA3 (as possible control) and M17_3SYN cells were prepared, starting from a stock culture, at a density of 20.000-40.000 cells/cm2 in culture medium (Opti-MEM® Reduced Serum Medium with Phenol Red (Invitrogen, Cat. 31985-047) supplemented with 10% FCS, 1 mM sodium pyruvate, 1×NEAA, 500 μg/ml G418 and 0.5×antibiotic/antimycotic (ABAM)). 3 days later these primary pre-cultures were used as a starting point to make secondary pre-cultures at a density of 50.000-100.000 cells/cm^2. At the day of the experiment these secondary precultures were diluted to ˜0.5·10^6 cells/ml in detection medium (Opti-MEM® Reduced-Serum Medium without Phenol Red (Invitrogen, Cat. 11085-021) supplemented with 10% FCS, 1 mM sodium pyruvate, 1×NEAA, 500 μg/ml G418 and 0.5×ABAM) and 60 μL of this suspension was dispensed per well into a 96-well microtiter plate. After 3 hours of incubation at 37° C./5% CO2 an equal volume of detection medium containing a final concentration of 6 mM Paraquat was added and subsequently incubated for 2 days at 37° C./5% CO2. Then LDH activity was determined using the Promega Cytotox 96 Non-Radioactive cytotoxicity assay (Promega, Cat. G1780), according to the manufacturer's instructions. Cytotoxicity was defined as the ratio of LDH relative to the total LDH in the cells and supernatant.
The assay described above using the M17_3SYN cell line allowed screening compounds for their ability to decrease cytotoxicity in PQ-challenged cells. Compounds of the invention were tested for their ability to decrease toxicity at different concentrations, ranging from low non-effective concentrations to high effective concentrations. Afterwards, a dose-dependent inhibition curve was used to calculate the EC50. A compound was considered to be active in this test when it inhibited toxicity by more than 20% relative to untreated M17_3SYN cells at a concentration of 10 μM or lower.

Compound | EC50
CCOc1ccc(S(=O)(=O)N2CCN(c3nc(C(C)(C)c4ccc(F)cc4)no3)CC2)cc1 [Cmpd115, 1-(4-Ethoxy-benzenesulfonyl)-4-{3-[1-(4-fluoro-phenyl)-1-methyl-ethyl]-[1,2,4]oxadiazol-5-yl}-piperazine] | 54 nM
COc1ccc(S(=O)(=O)N2CCN(c3nc(C4(c5ccc(Cl)cc5)CC4)no3)CC2)cc1 [Cmpd138, 1-{3-[1-(4-Chloro-phenyl)-cyclopropyl]-[1,2,4]oxadiazol-5-yl}-4-(4-methoxy-benzenesulfonyl)-piperazine] | 39 nM
CCOc1ccc(S(=O)(=O)N2CCN(c3nc(C4(c5ccc(Cl)cc5)CC4)no3)CC2)cc1 [Cmpd139, 1-{3-[1-(4-Chloro-phenyl)-cyclopropyl]-[1,2,4]oxadiazol-5-yl}-4-(4-ethoxy-benzenesulfonyl)-piperazine] | 356 nM
O=S(=O)(c1ccc(OC(F)F)cc1)N1CCN(c2nc(C3(c4ccc(Cl)cc4)CC3)no2)CC1 [Cmpd140, 1-{3-[1-(4-Chloro-phenyl)-cyclopropyl]-[1,2,4]oxadiazol-5-yl}-4-(4-difluoromethoxy-benzenesulfonyl)-piperazine] | 44 nM
COc1ccc(S(=O)(=O)N2CCN(c3nc(C(F)(F)c4ccc(Cl)cc4)no3)CC2)cc1 [Cmpd142, 1-{3-[(4-Chloro-phenyl)-difluoro-methyl]-[1,2,4]oxadiazol-5-yl}-4-(4-methoxy-benzenesulfonyl)-piperazine] | 24 nM
CCOc1ccc(S(=O)(=O)N2CCN(c3nc(C(F)(F)c4ccc(Cl)cc4)no3)CC2)cc1 [Cmpd143, 1-{3-[(4-Chloro-phenyl)-difluoro-methyl]-[1,2,4]oxadiazol-5-yl}-4-(4-ethoxy-benzenesulfonyl)-piperazine] | 25 nM
O=S(=O)(c1ccc(OC(F)F)cc1)N1CCN(c2nc(C(F)(F)c3ccc(Cl)cc3)no2)CC1 [Cmpd144, 1-{3-[(4-Chloro-phenyl)-difluoro-methyl]-[1,2,4]oxadiazol-5-yl}-4-(4-difluoromethoxy-benzenesulfonyl)-piperazine] | 145 nM
CCOc1ccc(S(=O)(=O)N2CCN(c3nc(C(F)(F)c4ccc(F)cc4)no3)CC2)cc1 [Cmpd147, 1-{3-[Difluoro-(4-fluoro-phenyl)-methyl]-[1,2,4]oxadiazol-5-yl}-4-(4-ethoxy-benzenesulfonyl)-piperazine] | 22 nM
O=S(=O)(c1ccc(OC(F)F)cc1)N1CCN(c2nc(C(F)(F)c3ccc(F)cc3)no2)CC1 [Cmpd148, 1-{3-[Difluoro-(4-fluoro-phenyl)-methyl]-[1,2,4]oxadiazol-5-yl}-4-(4-difluoromethoxy-benzenesulfonyl)-piperazine] | 34 nM
COc1ccc(S(=O)(=O)N2CCN(c3nc(C(C)(C)c4cccc(Cl)c4)no3)CC2)cc1 [Cmpd152, 1-{3-[1-(3-Chloro-phenyl)-1-methyl-ethyl]-[1,2,4]oxadiazol-5-yl}-4-(4-methoxy-benzenesulfonyl)-piperazine] | 1 nM
CCOc1ccc(S(=O)(=O)N2CCN(c3nc(C(C)(C)c4cccc(Cl)c4)no3)CC2)cc1 [Cmpd153, 1-{3-[1-(3-Chloro-phenyl)-1-methyl-ethyl]-[1,2,4]oxadiazol-5-yl}-4-(4-ethoxy-benzenesulfonyl)-piperazine] | 5 nM
CC(C)(c1cccc(Cl)c1)c1noc(N2CCN(S(=O)(=O)c3ccc(OC(F)F)cc3)CC2)n1 [Cmpd154, 1-{3-[1-(3-Chloro-phenyl)-1-methyl-ethyl]-[1,2,4]oxadiazol-5-yl}-4-(4-difluoromethoxy-benzenesulfonyl)-piperazine] | 7 nM
CSc1ccc(S(=O)(=O)N2CCN(c3nc(C(C)(C)c4cccc(Cl)c4)no3)CC2)cc1 [Cmpd155, 1-{3-[1-(3-Chloro-phenyl)-1-methyl-ethyl]-[1,2,4]oxadiazol-5-yl}-4-(4-methylsulfanyl-benzenesulfonyl)-piperazine] | 2 nM
COc1ccc(S(=O)(=O)N2CCN(c3nc(C(F)(F)c4ccccc4)no3)CC2)cc1 [Cmpd156, 1-[3-(Difluoro-phenyl-methyl)-[1,2,4]oxadiazol-5-yl]-4-(4-methoxy-benzenesulfonyl)-piperazine] | 5 nM
O=S(=O)(c1ccc(OC(F)F)cc1)N1CCN(c2nc(C(F)(F)c3ccccc3)no2)CC1 [Cmpd158, 1-(4-Difluoromethoxy-benzenesulfonyl)-4-[3-(difluoro-phenyl-methyl)-[1,2,4]oxadiazol-5-yl]-piperazine] | 31 nM
COc1ccc(S(=O)(=O)N2CCN(c3nc(CC4CC4)no3)CC2)cc1 [Cmpd159, 3-(Cyclopropylmethyl)-5-(4-((4-methoxyphenyl)sulfonyl)piperazin-1-yl)-1,2,4-oxadiazole] | 95 nM
O=S(=O)(c1ccc(OC(F)F)cc1)N1CCN(c2nc(CC3CC3)no2)CC1 [Cmpd160, 3-(Cyclopropylmethyl)-5-(4-((4-(difluoromethoxy)phenyl)sulfonyl)piperazin-1-yl)-1,2,4-oxadiazole] | 148 nM
CSc1ccc(S(=O)(=O)N2CCN(c3nc(CC4CC4)no3)CC2)cc1 [Cmpd161, 3-(Cyclopropylmethyl)-5-(4-((4-(methylthio)phenyl)sulfonyl)piperazin-1-yl)-1,2,4-oxadiazole] | 23 nM
CCOc1ccc(S(=O)(=O)N2CCN(c3nc(CC4CC4)no3)CC2)cc1 [Cmpd162, 3-(Cyclopropylmethyl)-5-(4-((4-ethoxyphenyl)sulfonyl)piperazin-1-yl)-1,2,4-oxadiazole] | 224 nM
COc1ccc(S(=O)(=O)N2CCN(c3nc(CC(F)(F)F)no3)CC2)cc1 [Cmpd165, 5-(4-((4-Methoxyphenyl)sulfonyl)piperazin-1-yl)-3-(2,2,2-trifluoroethyl)-1,2,4-oxadiazole] | 32 nM
CCOc1ccc(S(=O)(=O)N2CCN(c3nc(CC(F)(F)F)no3)CC2)cc1 [Cmpd166, 5-(4-((4-Ethoxyphenyl)sulfonyl)piperazin-1-yl)-3-(2,2,2-trifluoroethyl)-1,2,4-oxadiazole] | 368 nM
O=S(=O)(c1ccc(OC(F)F)cc1)N1CCN(c2nc(CC(F)(F)F)no2)CC1 [Cmpd167, 5-(4-((4-(Difluoromethoxy)phenyl)sulfonyl)piperazin-1-yl)-3-(2,2,2-trifluoroethyl)-1,2,4-oxadiazole] | 10000 nM
CSc1ccc(S(=O)(=O)N2CCN(c3nc(CC(F)(F)F)no3)CC2)cc1 [Cmpd168, 5-(4-((4-(Methylthio)phenyl)sulfonyl)piperazin-1-yl)-3-(2,2,2-trifluoroethyl)-1,2,4-oxadiazole] | 198 nM
COc1ccc(S(=O)(=O)N2CCN(c3nc(Cc4ccnc(C)c4)no3)CC2)cc1 [Cmpd169, 1-(4-Methoxy-benzenesulfonyl)-4-[3-(2-methyl-pyridin-4-ylmethyl)-[1,2,4]oxadiazol-5-yl]-piperazine] | 34 nM
COc1ccc(S(=O)(=O)N2CCN(c3nc(CCC(F)(F)F)no3)CC2)cc1 [Cmpd171, 5-(4-((4-Methoxyphenyl)sulfonyl)piperazin-1-yl)-3-(3,3,3-trifluoropropyl)-1,2,4-oxadiazole] | 248 nM
CSc1ccc(S(=O)(=O)N2CCN(c3nc(CCC(F)(F)F)no3)CC2)cc1 [Cmpd172, 5-(4-((4-(Methylthio)phenyl)sulfonyl)piperazin-1-yl)-3-(3,3,3-trifluoropropyl)-1,2,4-oxadiazole] | 166 nM
O=S(=O)(c1ccc(OC(F)F)cc1)N1CCN(c2nc(CCC(F)(F)F)no2)CC1 [Cmpd173, 5-(4-((4-(Difluoromethoxy)phenyl)sulfonyl)piperazin-1-yl)-3-(3,3,3-trifluoropropyl)-1,2,4-oxadiazole] | 438 nM
COc1ccc(S(=O)(=O)N2CCN(c3nc(C4C[C@@H]5CC[C@H]4C5)no3)CC2)cc1 (stereo partly drawn) [Cmpd190, 3-((1S,4R)-bicyclo[2.2.1]heptan-2-yl)-5-(4-((4-methoxyphenyl)sulfonyl)piperazin-1-yl)-1,2,4-oxadiazole] | 215 nM
O=S(=O)(c1ccc(OC(F)F)cc1)N1CCN(c2nc(C3C[C@@H]4CC[C@H]3C4)no2)CC1 (stereo partly drawn) [Cmpd192, 3-((1 S,4R)-bicyclo[2.2.1]heptan-2-yl)-5-(4-((4-(difluoromethoxy)phenyl)sulfonyl)piperazin-1-yl)-1,2,4-oxadiazole] | 164 nM
